Assay results as given in patent US6596772B1, “Phosphate mimics and methods of treatment using phosphatase inhibitors” (Sugen, Inc., priority 1999, dated 2003).

Key:
Experiment in all cases: PTP IC50 assay, pNPP or FDP as substrate
Format in all cases: biochemical
PTP MEG2 = biological target: T1, PTP MEG2 (Homo sapiens, UniProt P43378); conditions: pNPP or FDP as substrate, 25° C.; read-out: PTP IC50 MEG2
T1 construct: made in house; host or cells: E. coli BL-21 (pGEX 6P-1)
T1 sequence (P43378 262-593 limits assumed): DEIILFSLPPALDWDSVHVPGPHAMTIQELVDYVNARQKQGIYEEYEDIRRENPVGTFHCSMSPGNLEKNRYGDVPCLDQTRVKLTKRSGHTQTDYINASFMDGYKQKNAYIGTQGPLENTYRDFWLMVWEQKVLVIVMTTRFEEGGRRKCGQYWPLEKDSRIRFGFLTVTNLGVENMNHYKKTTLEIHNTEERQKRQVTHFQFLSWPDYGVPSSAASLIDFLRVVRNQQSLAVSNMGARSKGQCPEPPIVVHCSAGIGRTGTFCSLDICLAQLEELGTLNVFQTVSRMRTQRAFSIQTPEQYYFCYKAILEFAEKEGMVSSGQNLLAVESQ
Method: (§1) The following in vitro assay procedure is preferred to determine the level of activity and effect of the different compounds of the present invention on one or more of the PTPs. Similar assays can be designed along the same lines for any PTP using techniques well known in the art.
(§2) The catalytic assays described herein are performed in a 96-well format. The general procedure begins with the determination of PTP optimal pH using a three-component buffer system that minimizes ionic strength variations across a wide range of buffer pH. Next, the Michaelis-Menten constant, or Km, is determined for each specific substrate-PTP system. This Km value is subsequently used as the substrate reaction concentration for compound screening. Finally, the test PTP is exposed to varying concentrations of compound for fifteen minutes and allowed to react with substrate for ten minutes. The results are plotted as percent inhibition versus compound concentration and the IC50 interpolated from the plot.
(§3) All assays were performed using pNPP or FDP as substrate. The optimum pH was determined for each PTP used.
(§4) PTPase activity was assayed at 25° C. in a 100-μl reaction mixture containing an appropriate concentration of pNPP or FDP as substrate. The reaction was initiated by addition of the PTP and quenched after 10 min by addition of 50 μl of IN NaOH. The non-enzymatic hydrolysis of the substrate was corrected by measuring the control without the addition of the enzyme. The amount of p-nitrophenol produced was determined from the absorbance at 410 nm. To determine the kinetic parameter, Km, the initial velocities were measured at various substrate concentrations and the data were fitted to the Michaelis equation where velocity=(Vmax*[S])/(Km+[S]), and [S]=substrate reaction concentration.
(§5) The effect of the compounds on PTP was evaluated at 25° C. using pNPP or FDP as substrate. PTP was pre-incubated for fifteen minutes with various concentrations of compound. Substrate was then added at a fixed concentration (usually equal to the Km previously calculated). After 10 minutes, NaOH was added to stop the reaction. The hydrolysis of pNPP was followed at 410 nm on the Biotek Powerwave 200 microplate scanning spectrophotometer. The percent inhibition was calculated as follows: Percent Inhibition=[(control signal−compound signal)/control signal] ×100%. The IC50 was then determined by interpolation of a percent inhibition versus compound concentration plot.
(§6) Plasmids designed for bacterial GST-PTP fusion protein expression were derived by insertion of PCR-generated human PTP fragments into pGEX vectors (Pharmacia Biotech). Several of these constructs were then used to subclone phosphatases into pFastBac-1for expression in Sf-9 insect cells. Oligonucleotides used for the initial amplification of PTP genes are shown below. The cDNAs were prepared using the Gilbo BRL superscript preamplification system on RNAs purchased from Clontech.
The PTP MEG2 cDNA was amplified from human placenta single strand cDNA (Clontech RNA) using the following oligonucleotides: 5′oligo: 5′-[…]-3′ (SEQ ID NO: 8) 3′oligo: 5′-[…]-3′ (SEQ ID NO: 9) and subsequently ligated into pGex 6P-1 Eco RI/Xho I sites.

PTP SIGMA = biological target: T2, PTP SIGMA (Homo sapiens, UniProt Q13332); conditions: pNPP or FDP as substrate, 25° C.; read-out: PTP IC50 Sigma
T2 construct: made in house; host or cells: E. coli BL-21 (pGEX 6P-1)
T2 sequence (Q13332 1320-1660 limits assumed): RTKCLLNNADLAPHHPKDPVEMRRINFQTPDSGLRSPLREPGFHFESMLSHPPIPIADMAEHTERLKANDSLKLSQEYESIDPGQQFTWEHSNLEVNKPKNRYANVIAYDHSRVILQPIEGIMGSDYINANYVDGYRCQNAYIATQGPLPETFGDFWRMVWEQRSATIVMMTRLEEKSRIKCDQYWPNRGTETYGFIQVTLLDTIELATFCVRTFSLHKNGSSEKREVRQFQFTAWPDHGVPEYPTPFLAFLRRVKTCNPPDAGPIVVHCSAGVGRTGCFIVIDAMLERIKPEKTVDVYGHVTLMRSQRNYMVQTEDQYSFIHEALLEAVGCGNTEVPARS
Method: as §1, §2, §3, §4, §5, §6
The PTP Sigma cDNA was amplified from human brain single strand cDNA (Clontech RNA) using the following oligonucleotides: 5′oligo: 5′-[…]-3′ (SEQ ID NO: 12) 3′oligo: 5′-[…]-3′ (SEQ ID NO: 13) and subsequently ligated into pGex 6P-1 Eco RI/Xho I sites.

PTP ALPHA = biological target: T3, PTP ALPHA (Homo sapiens, UniProt P18433); conditions: 25° C.
T3 construct: RTPα intracellular domain construct was obtained; made in house; host or cells: E. coli BL-21 (pGEX 3X)
Method: as §1, §2, §3, §4, §5, §6
RTPα intracellular domain construct was obtained, Schlessinger et al., U.S. Pat. No. 5,888,794, the contents of which are hereby incorporated in their entirety into the present application. The RTPα fragment was cloned into pGEX 3× using the following procedure. The portion from EclX I/Xma III/Eag I (N-terminus blunted by Klenow) to Eco RV was cloned into the Sma I site. The EclX I site is approximately 15 residues downstream of the transmembrane domain.

PTP BETA = biological target: T4, PTP BETA (Homo sapiens, UniProt P23467); conditions: pNPP or FDP as substrate, 25° C.; read-out: PTP IC50 Beta
T4 construct: The catalytic domain was amplified using the following oligonucleotides; made in house; host or cells: E. coli BL-21 (pGEX 6P-1)
Method: as §1, §2, §3, §4, §5, §6
The PTP Beta cDNA used has been described earlier (Levy et al., 1993, J. Biol. Chem, 268:10573-10581). The catalytic domain was amplified using the following oligonucleotides: 5′oligo: 5′-[…]-3′ (SEQ ID NO: 16) 3′oligo: 5′-[…]-3′ (SEQ ID NO: 17) and subsequently cloned into the Eco RI/Xho I sites of pGEX 6P-1.

T4 sequence (P23467 1653-1997): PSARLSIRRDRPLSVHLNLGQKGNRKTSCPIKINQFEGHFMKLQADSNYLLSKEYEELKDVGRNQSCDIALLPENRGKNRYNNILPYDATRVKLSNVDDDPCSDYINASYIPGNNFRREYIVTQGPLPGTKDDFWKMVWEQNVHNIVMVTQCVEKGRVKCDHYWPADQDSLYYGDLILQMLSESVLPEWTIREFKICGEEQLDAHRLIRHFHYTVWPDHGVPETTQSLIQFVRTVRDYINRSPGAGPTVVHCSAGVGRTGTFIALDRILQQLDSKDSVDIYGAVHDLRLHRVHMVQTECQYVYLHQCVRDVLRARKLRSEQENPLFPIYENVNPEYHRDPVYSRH

SMILES | IC50 (PTP MEG2) [µM] | IC50 (PTP SIGMA) [µM] | IC50 (PTP ALPHA) [µM] | IC50 (PTP BETA) [µM]
O=C(c1ccccc1)N(Cc1ccc(S(=O)(=O)C(F)(F)F)cc1)Cc1ccc(S(=O)(=O)C(F)(F)F)cc1 [Example 3, N,N-Bis(4-trifluoromethylsulfonylbenzyl)benzamide] | 85.9 | 42.6 | > 100 | 17.2
O=S(=O)(c1ccc(CCc2ccc(S(=O)(=O)C(F)(F)F)cc2)cc1)C(F)(F)F [Example 4, 1,2-Bis(4-trifluoromethylsulfonylphenyl)ethane] | 45.9 | 81.1 | > 100 | 6.8
O=C(NCc1ccc(S(=O)(=O)C(F)(F)F)cc1)c1ccc(S(=O)(=O)C(F)(F)F)cc1 [Example 5, N-(4-Trifluoromethylsulfonylbenzyl)-4-trifluoromethylsulfonylbenzamide] | > 100 | > 100 | > 100 | 44.8
O=C(NCc1ccc(S(=O)(=O)C(F)(F)F)cc1)c1ccccc1 [Example 6, N-(4-Trifluoromethylsulfonylbenzyl)benzamide] | > 100 | > 100 | > 100 | > 100
O=C(O)c1ccc(Oc2cccc(Oc3ccc(S(=O)(=O)C(F)(F)F)cc3)c2)cc1 [Example 18, 4-[3-(4-Trifluoromethanesulfonyl-phenoxy)-phenoxy]-benzoic acid] | 44 | 22.1 | 40.4 | 13.5
CCOC(=O)COc1ccc(S(=O)(=O)c2ccc(Oc3ccc(S(=O)(=O)C(F)(F)F)cc3)cc2)cc1 [Example 19, {4-[4-(4-trifluoromethanesulfonyl-phenoxy)-benzenesulfonyl]-phenoxy}-acetic acid ethyl ester] | 52.2 | 93.3 | > 100 | 1.9
O=C(Cc1ccccc1CC(=O)Nc1cccc(S(=O)(=O)C(F)(F)F)c1)Nc1cccc(S(=O)(=O)C(F)(F)F)c1 [Example 20, N-(3-Trifluoromethanesulfonyl-phenyl)-2-{2-[(3-trifluoromethanesulfonyl-phenylcarbamoyl)-methyl]-phenyl}-acetamide] | > 100 | 22.9 | > 100 | 8.7
O=[N+]([O-])c1cc(S(=O)(=O)C(F)(F)F)ccc1Oc1cc(CN2CCOCC2)c(Oc2ccc(S(=O)(=O)C(F)(F)F)cc2[N+](=O)[O-])cc1CN1CCOCC1 [Example 23, 3,6-Bis-(morpholin-4-ylmethyl)-2,5-bis-(2-nitro-4-trifluoromethanesulfonyl-phenoxy)-benzene] | > 100 | 8.5 | > 100 | 1.1
CN(C)CC(COc1ccc(S(=O)(=O)C(F)(F)F)cc1[N+](=O)[O-])Oc1ccc(S(=O)(=O)C(F)(F)F)cc1[N+](=O)[O-] (stereo not shown) [Example 24, [2,3-Bis-(2-nitro-4-trifluoromethanesulfonyl-phenoxy)-propyl]-dimethyl-amine] | > 100 | 53.5 | > 100 | 5.1

Further lines, results first:

IC50 (PTP MEG2) [µM] | IC50 (PTP SIGMA) [µM] | IC50 (PTP ALPHA) [µM] | IC50 (PTP BETA) [µM] | SMILES
49.4 | 21.1 | > 100 | 3.1 | O=C(Cc1cccc(CC(=O)Nc2cccc(S(=O)(=O)C(F)(F)F)c2)c1)Nc1cccc(S(=O)(=O)C(F)(F)F)c1 [Example 21, N-(3-Trifluoromethanesulfonyl-phenyl)-2-{3-[(3-trifluoromethanesulfonyl-phenylcarbamoyl)-methyl]-phenyl}-acetamide]
27.5 | 7.8 | > 100 | 1.4 | O=C(Cc1ccc(CC(=O)Nc2cccc(S(=O)(=O)C(F)(F)F)c2)cc1)Nc1cccc(S(=O)(=O)C(F)(F)F)c1 [Example 22, N-(3-Trifluoromethanesulfonyl-phenyl)-2-{4-[(3-trifluoromethanesulfonyl-phenylcarbamoyl)-methyl]-phenyl}-acetamide]
52.6 | > 71 | > 100 | 0.35 | CCNc1ccc(S(=O)(=O)C(F)(F)F)cc1NC(=O)Cc1ccc(S(C)(=O)=O)cc1 [Example 25, N-(2-Ethylamino-5-trifluoromethanesulfonyl-phenyl)-2-(4-methanesulfonyl-phenyl)-acetamide]
90.8 | 69 | > 100 | 2.9 | CCOC(=O)c1cc(Oc2ccc(S(=O)(=O)C(F)(F)F)cc2[N+](=O)[O-])c(C(=O)OCC)cc1O [Example 26, 2-Hydroxy-5-(2-nitro-4-trifluoromethanesulfonyl-phenoxy)-terephthalic acid diethyl ester]
> 100 | > 100 | > 100 | 61.4 | O=C(O)Cc1ccccc1CC(=O)Nc1cccc(S(=O)(=O)C(F)(F)F)c1 [Example 27, {2-[(3-Trifluoromethanesulfonyl-phenylcarbamoyl)-methyl]-phenyl}-acetic acid]
33.3 | 45.1 | 36.2 | 3.2 | O=C(O)Cc1cccc(CC(=O)Nc2cccc(S(=O)(=O)C(F)(F)F)c2)c1 [Example 28, {3-[(3-Trifluoromethanesulfonyl-phenylcarbamoyl)-methyl]-phenyl}-acetic acid]
68.3 | 60.6 | 19.3 | 6.4 | O=C(O)Cc1ccc(CC(=O)Nc2cccc(S(=O)(=O)C(F)(F)F)c2)cc1 [Example 29, {4-[(3-Trifluoromethanesulfonyl-phenylcarbamoyl)-methyl]-phenyl}-acetic acid]
